Measured values reported in patent US10519506B2, “Identification of metastasis-specific miRNA and hypomethylation signatures in human colorectal cancer” (Baylor Research Institute, priority 2011, dated 2019).

How the values were obtained:
Format in all cases: cell-based, human
CRC cell lines [1] = test: miRNA expression (TaqMan miRNA assays) in CRC cell lines treated with RNA pol II inhibitor; settings: 50 μg/ml α-amanitin for 7 hours (FIG. 9)
Procedure: (§1) Additional materials and methods. CRC Cell line: CACO2, HCT116, RKO, SW48, SW480, and SW620. Tissue specimens: A total of 59 formalin-fixed, paraffin-embedded (FFPE) primary CRC tissues and corresponding liver metastasis tissues were analyzed. 5-Aza-2′-deoxycytidine (5-aza-dC) treatment: CRC cell lines were treated with 2.5 μM 5-aza-dC for 72 hours. α-amanitin treatment: CRC cell lines were treated with 50 μg/ml α-amanitin, a RNA pol II inhibitor, for 7 hours. Methylation analysis: Methylation levels were analyzed by bisulfite pyrosequencing for quantitative methylation analysis using PSQ HS 96A pyrosequencing system (Qiagen) on bisulfite modified genomic DNA template. microRNAs expression analysis: Expression of miR-373 and miR-520c was analyzed using TaqMan miRNA assays.

CRC cell lines [2] = test: Alu methylation by quantitative bisulfite pyrosequencing in CRC cell lines treated with demethylating agent; settings: for methylation status of global Alu repetitive element: 2.5 μM 5-aza-dC for 72 hours, pyrosequencing (FIG. 3)
Procedure: (§2) Cell lines and 5-aza-2-deoxy-cytidine treatment. Seven CRC cell lines, HCT116, RKO, SW48, Caco-2, HT29, SW480, and SW620 were obtained from the American Type Culture Collection (ATCC, Rockville, Md.). Cell lines were treated with 2.5 μM 5-Aza-2′-deoxycytidine (5-aza-dC; Sigma-Aldrich) for 72 hours, and fresh medium containing 5-aza-dC was replaced every 24 hours.
DNA methylation analysis. Methylation levels of repetitive sequences (global Alu and local Alu) were analyzed by quantitative bisulfite pyrosequencing using the PSQ HS 96A pyrosequencing system (Qiagen) following bisulfite modification of genomic DNA using EZ DNA methylation Gold Kits (Zymo Research), as described previously.
as §1

CRC cell lines [3] = test: miRNA expression (TaqMan miRNA assays) in CRC cell lines treated with demethylating agent
Procedure: as §2
miRNA expression analysis. Expression of fourteen metastasis-related miRNAs (let-7i, miR-10b, miR-30b, miR-34a, miR-141, miR-200b, miR-200c, miR-203, miR-221, miR-320a, miR-373, miR-429, miR-518d, and miR-520c) was analyzed using TaqMan miRNA assays (Applied Biosystems Inc., Foster City, Calif.). Expression of RNU6B (Applied Biosystems Inc., Foster City, Calif.) and miR-16 were used as endogenous controls for cell lines and FFPE tissues, respectively.
as §1, with “5-Aza-2′-deoxycytidine (5-aza-dC) treatment: CRC cell lines were treated with 2.5 μM 5-aza-dC for 72 hours. α-amanitin treatment: CRC cell lines were treated with 50 μg/ml α-amanitin, a RNA pol II inhibitor, for 7 hours.” left out

SMILES | expression of miR-520c (CRC cell lines [1]) | miR-373 transcription / activation (CRC cell lines [1]) | miR-373 transcription / activation (CRC cell lines [1]; listed as RNA polymerase II inhibitor) | methylation status of global Alu repetitive element (CRC cell lines [2]) | methylation status of global Alu repetitive element (CRC cell lines [2]; listed as 5-azacytidine) | methylation of Alu element in miR-373 promoter region (CRC cell lines [2]; 5Aza treatment) | expression of miR-373 (CRC cell lines [3]; demethylating agent treatment) | expression of miR-520c (CRC cell lines [3]; demethylating agent treatment (FIG. 6B))
CC[C@H](C)[C@@H]1NC(=O)CNC(=O)[C@@H]2Cc3c([nH]c4cc(O)ccc34)[S+]([O-])C[C@@H](NC(=O)CNC1=O)C(=O)N[C@@H](CC(N)=O)C(=O)N1C[C@H](O)C[C@H]1C(=O)N[C@@H]([C@@H](C)[C@@H](O)CO)C(=O)N2 (stereo in doubt) [RNA pol II inhibitor, α-amanitin] | inhibited the expression | did not suppress activation | did not suppress | – | – | – | – | –
Nc1ncn([C@H]2C[C@H](O)[C@@H](CO)O2)c(=O)n1 [5-aza, 5-Aza-2′-deoxycytidine] | – | – | – | markedly demethylated | Global hypomethylation of Alu sequences was observed | demethylated | induced | induced
